Assay results: PMC12041370, “AARS2-catalyzed lactylation induces follicle development and premature ovarian insufficiency” (Cell Death Discovery, 2025)
Residue numbers refer to the chain shown, from its start.

What was measured:
AARS2 [1] = molecular target: T1, AARS2 (Homo sapiens, UniProt Q5JTZ9); assay: in vitro lactylation of PDHA1 and CPT2, Western blot; type: biochemical; details: β-alanine in reaction mix, concentration not told
T1 construct: full-length human AARS2 985 aa
T1 sequence (Q5JTZ9 11-985): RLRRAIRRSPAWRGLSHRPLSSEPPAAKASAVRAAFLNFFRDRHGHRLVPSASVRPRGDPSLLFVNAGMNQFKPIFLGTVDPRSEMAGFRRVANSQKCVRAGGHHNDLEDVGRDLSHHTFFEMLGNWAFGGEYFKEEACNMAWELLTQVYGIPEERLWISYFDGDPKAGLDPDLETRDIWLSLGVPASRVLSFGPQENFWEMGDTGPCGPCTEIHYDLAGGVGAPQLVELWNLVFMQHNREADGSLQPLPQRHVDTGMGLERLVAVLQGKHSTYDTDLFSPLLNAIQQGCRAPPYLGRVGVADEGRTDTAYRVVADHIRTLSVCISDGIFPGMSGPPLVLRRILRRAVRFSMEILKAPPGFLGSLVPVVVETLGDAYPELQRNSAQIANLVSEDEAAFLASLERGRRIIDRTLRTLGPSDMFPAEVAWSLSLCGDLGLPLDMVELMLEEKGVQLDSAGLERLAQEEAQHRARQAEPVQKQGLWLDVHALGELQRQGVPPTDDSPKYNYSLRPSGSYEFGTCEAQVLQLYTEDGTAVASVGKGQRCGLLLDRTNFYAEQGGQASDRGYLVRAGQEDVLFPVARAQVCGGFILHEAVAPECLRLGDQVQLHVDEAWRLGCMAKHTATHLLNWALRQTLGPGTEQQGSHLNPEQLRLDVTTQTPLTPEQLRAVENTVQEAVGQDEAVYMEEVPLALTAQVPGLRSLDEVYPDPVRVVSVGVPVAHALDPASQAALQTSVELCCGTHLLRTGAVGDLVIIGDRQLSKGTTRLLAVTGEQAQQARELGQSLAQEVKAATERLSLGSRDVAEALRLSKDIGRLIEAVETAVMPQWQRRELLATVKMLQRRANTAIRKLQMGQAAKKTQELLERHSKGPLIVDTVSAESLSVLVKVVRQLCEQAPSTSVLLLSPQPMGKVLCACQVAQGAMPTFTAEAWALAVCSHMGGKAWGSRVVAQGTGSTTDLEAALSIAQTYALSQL

AARS2 [2] = molecular target: T1, AARS2; assay: isothermal titration calorimetry (Microcal); type: binding; details: read-out: K
Source text: isothermal titration calorimetry (Microcal) on AARS2 | The parameters of lactate binding to AARS2 were as follows

AARS2 [3] = molecular target: T2, AARS2 (Homo sapiens, UniProt Q5JTZ9, R199C); assay: isothermal titration calorimetry (Microcal); type: binding; details: read-out: K
T2 construct: full-length human AARS2 985 aa
T2 sequence (Q5JTZ9 11-985 R199C): T1 sequence (Q5JTZ9 11-985) with R189C
Source text: isothermal titration calorimetry (Microcal) on AARS2 | For lactate binding to the R199C mutant, the parameters were as follows

| SMILES | inhibition (AARS2 [1]) | Kd (AARS2 [2]) | Kd (AARS2 [3]) |
| --- | --- | --- | --- |
| NCCC(=O)O [β-alanine] | β-alanine inactivated lactyltransferase activities of both AARS2 and R199C | – | – |
| C[C@H](O)C(=O)O [lactate] | – | 8.23 to 17.9 µM | 2.6 to 3.7 µM |
